Paper PMC5986547 (Heliyon, 2018)
Where two headings read alike, the source gives them in different places.

Columns and labels:
SK-N-BE(2)C cells = test: Uptake kinetics of [3H]NE by adherent SK-N-BE; assay type: cell-based, human; details: RT, 24-well plates, 163 μg of protein/well, mean ± S.E.M., N = 3
hNET [1] = target: T1, hNET (Homo sapiens, UniProt P23975); assay type: cell-based
hNET [2] = target: T1, hNET; test: Reuptake inhibition assay, [3H]NE, plated hNET-HEK293 cells; assay type: cell-based
rNET [3] = target: T2, rNET (Rattus norvegicus, UniProt Q63380); assay type: biochemical; details: read-out: IC50, rNET, synaptosomes (in parentheses, converted from Ki)
T2 sequence (Q63380 1-617): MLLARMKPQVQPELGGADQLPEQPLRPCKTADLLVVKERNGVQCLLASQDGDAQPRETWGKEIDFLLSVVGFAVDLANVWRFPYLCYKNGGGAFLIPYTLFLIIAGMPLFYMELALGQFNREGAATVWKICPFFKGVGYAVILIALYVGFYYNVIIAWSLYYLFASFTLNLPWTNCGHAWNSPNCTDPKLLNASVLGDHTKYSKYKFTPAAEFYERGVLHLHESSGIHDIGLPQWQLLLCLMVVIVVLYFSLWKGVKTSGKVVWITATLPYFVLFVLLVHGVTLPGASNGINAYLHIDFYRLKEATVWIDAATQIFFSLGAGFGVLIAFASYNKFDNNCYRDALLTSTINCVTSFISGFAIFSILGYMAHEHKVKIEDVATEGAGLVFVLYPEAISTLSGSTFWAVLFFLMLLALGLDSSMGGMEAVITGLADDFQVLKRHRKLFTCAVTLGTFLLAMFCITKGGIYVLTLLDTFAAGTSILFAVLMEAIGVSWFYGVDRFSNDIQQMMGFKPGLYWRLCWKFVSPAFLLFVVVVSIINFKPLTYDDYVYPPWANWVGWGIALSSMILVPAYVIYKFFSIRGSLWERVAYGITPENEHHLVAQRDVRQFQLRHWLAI

rNET [4] = target: T2, rNET; details: read-out: Ki, reuptake inhibition, rNET, synaptosomes; cited from earlier work
hNET [5] = target: T1, hNET; details: read-out: IC50, reuptake inhibition, hNET-HEK293 cells; mean ± S.E.M.; cell suspensions; cited from earlier work

T1 sequence (P23975 whole entry): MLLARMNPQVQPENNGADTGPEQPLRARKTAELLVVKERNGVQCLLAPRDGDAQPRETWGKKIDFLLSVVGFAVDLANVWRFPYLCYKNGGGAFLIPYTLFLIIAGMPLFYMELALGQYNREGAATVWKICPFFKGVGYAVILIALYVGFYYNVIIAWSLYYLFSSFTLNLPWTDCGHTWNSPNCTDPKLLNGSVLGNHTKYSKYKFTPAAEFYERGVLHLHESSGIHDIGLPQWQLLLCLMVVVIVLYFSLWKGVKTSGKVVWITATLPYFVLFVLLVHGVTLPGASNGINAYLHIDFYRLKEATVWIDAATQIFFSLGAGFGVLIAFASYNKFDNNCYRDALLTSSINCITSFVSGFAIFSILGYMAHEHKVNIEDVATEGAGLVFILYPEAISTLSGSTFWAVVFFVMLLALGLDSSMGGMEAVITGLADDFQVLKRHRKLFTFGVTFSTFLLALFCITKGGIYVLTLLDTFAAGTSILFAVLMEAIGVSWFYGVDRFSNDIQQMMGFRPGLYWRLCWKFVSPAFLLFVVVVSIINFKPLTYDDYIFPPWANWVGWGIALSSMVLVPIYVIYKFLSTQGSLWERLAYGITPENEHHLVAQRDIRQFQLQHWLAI

SMILES: NC[C@H](O)c1ccc(O)c(O)c1 [[^3H]NE, [^3H]norepinephrine]
- Km (SK-N-BE(2)C cells; read-out: KM of [3H]NE uptake): 0.416 µM

SMILES: CN1[C@H]2CC[C@@H]1[C@@H](C(=O)N1CCCC1)[C@@H](c1ccc(I)cc1)C2 [RTI-229]
- fold less potent in SK-N-BE(2)C cells than in rat brain synaptosomes (hNET [1]; ratio of IC50 values): 38 fold

SMILES: Fc1ccc(C(OCCN2CCN(CCCc3ccccc3)CC2)c2ccc(F)cc2)cc1 [GBR12909]
- activity in hNET-HEK293 cells, in words (hNET [2]): inactive

SMILES: [3H][C@](O)(CN)c1ccc(O)c(O)c1 [[^3H]NE, [^3H]norepinephrine]
- VMAX of [3H]NE uptake (SK-N-BE(2)C cells): 195 ± 13 fmol radioactivity/mg protein/min

SMILES: c1ccc(CCCN2CCN(CCOC(c3ccccc3)c3ccccc3)CC2)cc1 [GBR12935]
- IC50 (rNET [3]): 299 nM
- Ki (rNET [4]): 277 nM
- fold less potent in SK-N-BE(2)C cells than in hNET-HEK293 cells (hNET [1]): 14.8 fold
- fold less potent in SK-N-BE(2)C cells than in rat brain synaptosomes (hNET [1]): 11.6 fold
- IC50 (hNET [1]; read-out: IC50, reuptake inhibition, hNET, SK-N-BE(2)C cells): 3470 ± 150 nM
- IC50 (hNET [5]): 235 ± 53 nM

SMILES: COC(=O)[C@H]1C(c2ccc(I)cc2)C[C@@H]2CC[C@H]1N2C (stereo partly shown) [RTI-55]
- fold less potent in SK-N-BE(2)C cells than in rat brain synaptosomes (hNET [1]; ratio of IC50 values): 6 fold
- fold less potent in SK-N-BE(2)C cells than in hNET-HEK293 cells (hNET [1]; ratio of IC50 values, hNET-HEK293 data of ref 8): 14.4 fold
- IC50 (hNET [5]): 2.63 ± 0.76 nM
